Measured values: article PMC6297231 (Nature Communications, 2018)
Like-named read-outs stand apart in the source and are kept apart here.

Tests used:
[1] = test system: KG1a; assay: Cell viability assay; type: cell-based; settings: Homo sapiens, KG-1a, 24 h; KG1a (AML); read-out: AZD5991 24h GI50
Protocol: (§1) Cells were plated at 3000 cells/well in 384-well white plates in corresponding cell growth media. […] Caspase-3/7 activation was subsequently determined using a Caspase-Glo 3/7 Reagent (Promega) and viability was assayed using the CellTiter-Glo Reagent (Promega) as described in manufacturer’s instructions. Dose–response curves for caspase-3/7 activation and viability were plotted and analyzed (including EC50 and GI50 determination) using GraphPad Prism.

[2] = test system: H322; assay: Cell viability assay; type: cell-based; settings: NCI-H322, 24 h; H322 (Lung); read-out: AZD5991 24h GI50
Protocol: as §1

[3] = test system: JJN3; assay: Cell viability assay; type: cell-based; settings: Homo sapiens, JJN-3, 24 h; JJN3 (MM); read-out: AZD5991 24h GI50
Protocol: as §1

[4] = test system: 5637; assay: Cell viability assay; type: cell-based; settings: 24 h; 5637 (Urology); read-out: AZD5991 24h GI50
Protocol: as §1

[5] = test system: MM1S; assay: Cell viability assay; type: cell-based; settings: Homo sapiens, MM1.S, 24 h; MM1S (MM); read-out: AZD5991 24h GI50
Protocol: as §1

[6] = test system: NB4; assay: Cell viability assay; type: cell-based; settings: Homo sapiens, NB-4, 24 h; NB4 (AML); read-out: AZD5991 24h GI50
Protocol: as §1

[7] = test system: Sudhl16; assay: Cell viability assay; type: cell-based; settings: Homo sapiens, SU-DHL-16, 24 h; Sudhl16 (NHL); read-out: AZD5991 24h GI50
Protocol: as §1

[8] = test system: OCIAML2; assay: Cell viability assay; type: cell-based; settings: Homo sapiens, OCI-AML2, 24 h; OCIAML2 (AML); read-out: AZD5991 24h GI50
Protocol: as §1

[9] = test system: JVM2; assay: Cell viability assay; type: cell-based; settings: Homo sapiens, JVM-2, 24 h; JVM2 (NHL); read-out: AZD5991 24h GI50
Protocol: as §1

[10] = test system: Eμ-Myc lymphoma cells stably expressing human Bcl-2; assay: Apoptosis induction in Eμ-Myc lymphoma cells; settings: overexpression of Bcl-2, 24 h
Excerpt: (§2) The retroviral plasmids to express human Bcl-2 family members in murine Eμ-Myc lymphoma cells are MSCV-hMCL-1-GFP, MSCV-hBCL-2-GFP, MSCV-hBCL-XL-GFP, MSCV-hBFL-1/A1-GFP, and MSCV-hBCL-w-GFP. To produce viruses, constructs of interest were co-transfected into HEK293T cells with the plasmid encoding the packaging viruses (p-CL-AMPHO provided by Phillip Darcy from Peter MacCallum Cancer Center, Melbourne, Australia) using standard calcium phosphate transient transfection technique. The retroviruses were harvested, filtered and used to infect target cells following standard procedures.
(§3) Samples were then centrifuged, washed twice with PBS and analyzed by flow cytometry in a BD LSRFortessa. FACSDiva software was used for data collection and FlowJo software for data analysis.

[11] = test system: LnCAP; assay: Cell viability assay; type: cell-based; settings: Homo sapiens, 24 h; LnCAP (Urology); read-out: AZD5991 24h GI50
Protocol: as §1

[12] = test system: DU145; assay: Cell viability assay; type: cell-based; settings: Homo sapiens, DU-145, 24 h; DU145 (Urology); read-out: AZD5991 24h GI50
Protocol: as §1

[13] = test system: PL21; assay: Cell viability assay; type: cell-based; settings: PL-21, 24 h; PL21 (AML); read-out: AZD5991 24h GI50
Protocol: as §1

[14] = test system: HCC827; assay: Cell viability assay; type: cell-based; settings: Homo sapiens, 24 h; HCC827 (Lung); read-out: AZD5991 24h GI50
Protocol: as §1

[15] = test system: MV4-11 tumors; assay: MV4-11 subcutaneous mouse xenograft efficacy; type: in vivo, mice; settings: for tumor regression (TR): transient
Protocol: Female C.B.-17 SCID mice and female nude rats were purchased from Charles River Laboratories. […]. All xenograft studies were conducted at our Association for the Assessment and Accreditation of Laboratory Animal Care accredited facility in Waltham, MA in accordance with ethical regulations described in the guidelines established by the internal Institutional Animal Care and Use Committee. […]. In mice, drugs were dosed intravenously in a volume of 5 mL kg^-1 except for venetoclax that was dosed orally in a volume of 10 mL kg^-1. […]. Ten million MV4-11 cells were injected subcutaneously in the right flank of rats in a volume of 0.1 mL. Tumor volumes (measured by caliper), animal body weight, and tumor condition were recorded twice weekly for the duration of the study. The tumor volume was calculated using the formula: length (mm) × width (mm)^2[…]. For efficacy studies, growth inhibition from the start of treatment was assessed by comparison of the differences in tumor volume between control and treated groups. Statistical significance was evaluated using non-parametric, unpaired, two-tailed t-test. For efficacy studies, animals were randomized based on tumor volumes using stratified sampling, and enrolled into control and treatment groups. Dosing began when mean tumor size reached ~230 mm^3 in mice and 900 mm^3 in rats. Mice were euthanized once tumor size reached 2000 mm^3. Mice were excluded from the study upon body weight loss > 10% of the body weight at the initiation of the study. For pharmacokinetic analysis, plasma samples were precipitated and diluted with acetonitrile containing internal standard and analyzed by LC–MS/MS versus a calibration curve of known concentrations.

[16] = test system: RT4; assay: Cell viability assay; type: cell-based; settings: Homo sapiens, RT-4, 24 h; RT4 (Urology); read-out: AZD5991 24h GI50
Protocol: as §1

[17] = test system: G361; assay: Cell viability assay; type: cell-based; settings: Homo sapiens, G-361, 24 h; G361 (Skin); read-out: AZD5991 24h GI50
Protocol: as §1

[18] = test system: DLD1; assay: Cell viability assay; type: cell-based; settings: Homo sapiens, DLD-1, 24 h; DLD1 (GI); read-out: AZD5991 24h GI50
Protocol: as §1

[19] = test system: Sudhl10; assay: Cell viability assay; type: cell-based; settings: Homo sapiens, SU-DHL10, 24 h; Sudhl10 (NHL); read-out: AZD5991 24h GI50
Protocol: as §1

[20] = test system: Eμ-Myc lymphoma cells, control; assay: cells; settings: Mus musculus, 24 h, read-out: apoptosis induction EC50 control
Excerpt: as §2, §3

[21] = test system: H1048; assay: Cell viability assay; type: cell-based; settings: Homo sapiens, NCI-H1048, 24 h; H1048 (Lung); read-out: AZD5991 24h GI50
Protocol: as §1

[22] = test system: HEL92.1.7; assay: Cell viability assay; type: cell-based; settings: Homo sapiens, HEL 92.1.7, 24 h; HEL92.1.7 (AML); read-out: AZD5991 24h GI50
Protocol: as §1

[23] = test system: MINO; assay: Cell viability assay; type: cell-based; settings: Homo sapiens, 24 h; MINO (NHL); read-out: AZD5991 24h GI50
Protocol: as §1

[24] = test system: H1975; assay: Cell viability assay; type: cell-based; settings: Homo sapiens, NCI-H1975, 24 h; H1975 (Lung); read-out: AZD5991 24h GI50
Protocol: as §1

[25] = test system: Nomo1; assay: Caspase-3/7 activation assay; type: cell-based; settings: Homo sapiens, NOMO-1, 6 h
Protocol: as §1

SMILES: Cc1c2c(nn1C)CSCc1cc(n(C)n1)CSc1cc(c3ccccc3c1)OCCCc1c(C(=O)O)n(C)c3c-2c(Cl)ccc13 (atropisomer, axis not shown; (Ra)) [(Ra)-7]
- GI50 [1]: 1430 nM
- GI50 [2]: 17400 nM
- GI50 [3]: 255 nM
- GI50 [4]: 28000 nM
- GI50 [5]: 348 nM
- GI50 [6]: 292 nM
- GI50 [7]: 119 nM
- GI50 [8]: 295 nM
- GI50 [9]: 547 nM
- apoptosis-inducing activity [10]: blocked
- GI50 [11]: 13400 nM
- GI50 [12]: 26800 nM
- GI50 [13]: 403 nM
- GI50 [14]: 20100 nM
- tumor regression (TR) ([15]; single i.v. dose 10 mg kg^−1, 7 days after treatment): 66%
- tumor regression (TR) ([15]; single i.v. dose 30 mg kg^−1, 7 days after treatment): 93%
- mice with complete TR ([15]; single i.v. dose 100 mg kg^−1): six out of six
- GI50 [16]: 2400 nM
- GI50 [17]: 404 nM
- GI50 [18]: 15100 nM
- GI50 [19]: 10 nM
- EC50 [20]: 1070 nM
- GI50 [21]: 4250 nM
- GI50 [22]: 1640 nM
- GI50 [23]: 149 nM
- GI50 [24]: 17600 nM
- EC50 ([25]; read-out: 6h caspase EC50, NOMO1, single agent): 32.5 nM
- EC50 ([25]; read-out: AZD5991 6h EC50, Nomo1 (AML), caspase 3/7 activation): 47 nM
